The values that follow are results of earlier work, collected in publication PMC10177510, “A Multicenter, Open-Label, Phase I/II Study of FN-1501 in Patients with Advanced Solid Tumors” (Cancers, 2023).

The term IC50 denotes the point on the concentration scale where inhibition reaches its midpoint.

For data set [1] the following is noted: preclinical, no reference given, cited from earlier work.
The subject of another data set is MV-4-11 xenograft. Conditions: preclinical, no reference given; cited from earlier work.
The next data set concerns MV-4-11. To be noted: ref data on file, Fosun Pharma; cited from earlier work.

Each structure is given as a SMILES string. In brackets after ≈: the same amount, converted by molar mass. Like-named read-outs stand apart in the source and are kept apart here.

For `CN1CCN(Cc2ccc(NC(=O)c3[nH]ncc3Nc3ncnc4[nH]ccc34)cc2)CC1` [FN-1501], the “Css,u in mice” value in data set [1] (5 mg) is given as “roughly 5 ng/mL”; in data set [1] (20 mg) it was roughly 50 ng/mL. Also, the “Dose at which tumor growth reached stasis” value in the data set with MV-4-11 xenograft is on record as 5 mg/kg. Also, the IC50 in the data set on MV-4-11 is 2.6 ng/mL (≈ 6.03 nM).
